Results as given in publication PMC3057096 (Bioorganic & medicinal chemistry, 2010).
Values belong to the compound of their own block, whether it stands above or below them.

Assays:
[1] = tested on: P. berghei (sensitive strain); assay: In vivo blood-schizontocidal antimalarial activity, rodent malaria model; design: species or system mice; conditions: for P. berghei: mice cured: dose of 25 mg/kg
[2] = tested on: P. falciparum (W2); type: cell-based; conditions: Plasmodium falciparum, W2, read-out: P. falciparum (W2) IC50
[3] = tested on: P. falciparum (D6); type: cell-based; conditions: Plasmodium falciparum, D6, read-out: P. falciparum (D6) IC50
[4] = tested on: Staphylococcus aureus; assay: In vitro antibacterial susceptibility testing; type: cell-based; conditions: read-out: S. aureus IC50, 50% growth inhibition
[5] = tested on: methicillin-resistant Staphylococcus aureus ATCC 43300 (MRSA); assay: In vitro antibacterial susceptibility testing; type: cell-based; conditions: ATCC43300|MRSA, read-out: MRSA MIC, NA = no activity at highest test concentration of 20 μg/mL
[6] = cited from earlier work
[7] = rodents; cited from earlier work
[8] = tested on: β-hematin (BH) formation; assay: Inhibition of β-hematin; type: biochemical; conditions: read-out: BH inhibition IC50

Compound: COc1cc(NC(C)CCCNC(=O)N[C@@H](CCCNC(=N)N)C(=O)NCCCC(C)Nc2cc(OC)cc3cccnc23)c2ncccc2c1.Cl (stereo partly drawn) [Compound 36, N-{4-[(6-methoxyquinolin-8-yl)amino]pentyl}-N^2-({4-[(6-methoxyquinolin-8-yl)-amino]pentyl}carbamoyl)-D-argininamide·3HCl]
- P. berghei in vivo activity class ([1]; 50 mg/kg/day × 4, oral): Inactive
- P. berghei in vivo activity class ([1]; 100 mg/kg/day × 4, oral): Curative
- IC50 [2]: 1.8 µg/mL
- IC50 [3]: 3.2 µg/mL

Compound: COc1cc(NC(C)CCCNC(=O)N[C@@H](CCCN)C(=O)NCCCC(C)Nc2cc(OC)cc3cccnc23)c2ncccc2c1.Cl (stereo partly drawn) [Compound 37, N-{4-[(6-methoxyquinolin-8-yl)amino]pentyl}-N^2-({4-[(6-methoxyquinolin-8-yl)-amino]pentyl}carbamoyl)-D-ornithinamide·3HCl]
- P. berghei in vivo activity class ([1]; 100 mg/kg/day × 4, oral): Inactive

- IC50 [3]: 3.6 µg/mL
Compound: COc1cc(NC(C)CCCNC(=O)N[C@H](CCCCN)C(=O)NCCCC(C)Nc2cc(OC)cc3cccnc23)c2ncccc2c1.Cl (stereo partly drawn) [Compound 38, N-{4-[(6-methoxyquinolin-8-yl)amino]pentyl}-N^2-({4-[(6-methoxyquinolin-8-yl)-amino]pentyl}carbamoyl)-L-lysinamide·3HCl]

- IC50 [2]: 3.2 µg/mL
Compound: COc1cc(NC(C)CCCNC(=O)N[C@@H](CCCN)C(=O)NCCCC(C)Nc2cc(OC)cc3ccc(C(C)(C)C)nc23)c2nc(C(C)(C)C)ccc2c1.Cl (stereo partly drawn) [Compound 42, N-{4-[(2-tert-butyl-6-methoxyquinolin-8-yl)amino]pentyl}-N^2-({4-[(2-tert-butyl-6methoxyquinolin-8-yl)amino]pentyl}carbamoyl)-D-ornithinamide·3HCl]

Compound: COc1cc(NC(C)CCCNC(=O)N[C@H](CCCCN)C(=O)NCCCC(C)Nc2cc(OC)cc3ccc(C(C)(C)C)nc23)c2nc(C(C)(C)C)ccc2c1.Cl (stereo partly drawn) [Compound 43, N-{4-[(2-tert-butyl-6-methoxyquinolin-8-yl)amino]pentyl}-N^2-({4-[(2-tert-butyl-6methoxyquinolin-8-yl)amino]pentyl}carbamoyl)-L-lysinamide·3HCl]
- P. berghei in vivo activity class ([1]; 100 mg/kg/day × 4, oral): Suppressive
- IC50 [3]: 1.6 µg/mL
- IC50 [4]: 1.78 to 2.73 µg/mL

Compound: COc1cc(NC(C)CCCNC(=O)CC[C@H](N)C(=O)NCCCC(C)Nc2cc(OC)cc3cccnc23)c2ncccc2c1.Cl (stereo partly drawn) [Compound 61, N^1,N^5-Bis{4-[(6-methoxyquinolin-8-yl)amino]pentyl}-L-glutamamide·3HCl]
- P. berghei in vivo activity class ([1]; 10 mg/kg/day × 4, oral): Suppressive
- P. berghei in vivo activity class ([1]; 25 mg/kg/day × 4, oral): Curative
- P. berghei in vivo activity class ([1]; 50 mg/kg/day × 4, oral): Curative
- P. berghei in vivo activity class ([1]; 100 mg/kg/day × 4, oral): Curative
- P. berghei: mice cured [1]: 100%
- IC50 [2]: 2.2 µg/mL
- IC50 [3]: 2.7 µg/mL

Compound: COc1cc(NC(C)CCCNC(=O)C[C@H](N)C(=O)NCCCC(C)Nc2cc(OC)cc3ccc(C(C)(C)C)nc23)c2nc(C(C)(C)C)ccc2c1.Cl (stereo partly drawn) [Compound 62, N^1,N^4-Bis{4-[(2-tert-butyl-6-methoxyquinolin-8-yl)amino]pentyl}-L-aspartamide·3HCl]
- P. berghei in vivo activity class ([1]; 100 mg/kg/day × 4, oral): Inactive
- IC50 [2]: 3.2 µg/mL

Compound: COc1cc(NC(C)CCCNC(=O)CC[C@H](N)C(=O)NCCCC(C)Nc2cc(OC)cc3ccc(C(C)(C)C)nc23)c2nc(C(C)(C)C)ccc2c1.Cl (stereo partly drawn) [Compound 63, N^1,N^5-Bis{4-[(2-tert-butyl-6-methoxyquinolin-8-yl)amino]pentyl}-L-glutamamide·3HCl]
- P. berghei in vivo activity class ([1]; 100 mg/kg/day × 4, oral): Inactive

- IC50 [2]: 3.6 µg/mL
Compound: COc1cc(NC(C)CCCNC(=O)C[C@@H](N)C(=O)NCCCC(C)Nc2cc(OC)cc3cccnc23)c2ncccc2c1.Cl (stereo partly drawn) [Compound 64, N^1,N^4-Bis{4-[(6-methoxyquinolin-8-yl)amino]pentyl}-D-aspartamide·3HCl]

Compound: COc1cc(NC(C)CCCNC(=O)NCCCC(C)Nc2cc(OC)cc3cccnc23)c2ncccc2c1.Cl.Cl (centres unmarked) [Compound 66, 1,3-Bis{4-[(6-methoxyquinolin-8-yl)amino]pentyl}urea·2HCl]
- P. berghei in vivo activity class ([1]; 100 mg/kg/day × 4, oral): Inactive

- MIC [5]: 5 to 20 µg/mL
Compound: COc1cc(NC(C)CCCNC(=S)NCCCC(C)Nc2cc(OC)cc3cccnc23)c2ncccc2c1.Cl.Cl (centres unmarked) [Compound 67, 1,3-Bis{4-[(6-methoxyquinolin-8-yl)amino]pentyl}thiourea·2HCl]

Compound: COc1cc(NC(C)CCCNC(=O)NCCCC(C)Nc2cc(OC)cc3ccc(C(C)(C)C)nc23)c2nc(C(C)(C)C)ccc2c1.Cl.Cl (centres unmarked) [Compound 68, 1,3-Bis{4-[(2-tert-butyl-6-methoxyquinolin-8-yl)amino]pentyl}urea·2HCl]
- P. berghei in vivo activity class ([1]; 100 mg/kg/day × 4, oral): Inactive
- IC50 [2]: 3.7 µg/mL

- MIC [5]: 5 to 20 µg/mL
Compound: CCCCCOc1c(OC)cc(NC(C)CCCNC(=S)NCCCC(C)Nc2cc(OC)c(OCCCCC)c3c(CC)ccnc23)c2nccc(CC)c12.Cl.Cl (centres unmarked) [Compound 71, 1,3-Bis{4-[4-ethyl-6-methoxy-5-(pentyloxy)quinolin-8-ylamino]pentyl}-thiourea·2HCl]

Compound: COc1cc(NC(C)CCCNC(=O)NC(=O)NCCCC(C)Nc2cc(OC)cc3cccnc23)c2ncccc2c1.Cl.Cl (centres unmarked) [Compound 74, N,N′-Bis{4-[(6-methoxyquinolin-8-yl)amino]pentyl}dicarbonimidic diamide·2HCl]
- P. berghei in vivo activity class ([1]; 100 mg/kg/day × 4, oral): Inactive

Compound: COc1cc(NC(C)CCCNCOC(=O)NCCCC(C)Nc2cc(OC)cc3cccnc23)c2ncccc2c1.Cl.Cl (centres unmarked) [Compound 76, ({4-[(6-Methoxyquinolin-8-yl)amino]pentyl}amino)methyl{4-[(6-methoxy-quinolin-8-yl)amino]pentyl}carbamate·2HCl]
- P. berghei in vivo activity class ([1]; 100 mg/kg/day × 4, oral): Suppressive

Compound: COc1cc(NC(C)CCCNCCNCCNCCCC(C)Nc2cc(OC)cc3cccnc23)c2ncccc2c1.Cl.Cl (centres unmarked) [Compound 79, N^1,N^1′-(iminodiethane-2,1-diyl)bis[N^4-(6-methoxyquinolin-8-yl)pentane-1,4-diamine]·2HCl]
- P. berghei in vivo activity class ([1]; 10 mg/kg/day × 4, oral): Suppressive
- P. berghei in vivo activity class ([1]; 25 mg/kg/day × 4, oral): Curative
- P. berghei in vivo activity class ([1]; 50 mg/kg/day × 4, oral): Curative
- P. berghei in vivo activity class ([1]; 100 mg/kg/day × 4, oral): Curative
- P. berghei: mice cured [1]: 100%

- IC50 [2]: 1.8 µg/mL
- IC50 [3]: 2.7 µg/mL
Compound: COc1cc(NC(C)CCCNC(=O)c2cncc(C(=O)NCCCC(C)Nc3cc(OC)cc4ccc(C(C)(C)C)nc34)c2)c2nc(C(C)(C)C)ccc2c1.Cl (centres unmarked) [Compound 85, N,N′-Bis{4-[(2-tert-butyl-6-methoxyquinolin-8-yl)amino]pentyl}pyridine-3,5-dicarboxamide·3HCl]

Compound: COc1cc(NC(C)CCCN)c2ncccc2c1 (centres unmarked) [PQ, primaquine]
- half life [6]: 4 to 6 h
- time at which two major metabolites start appearing in the blood [7]: about 30 min
- IC50 [8]: > 1000 µM
